Measured values taken from the NIST ThermoML archive (doi:10.1016/j.jct.2006.12.013).
Numbers after ± are expanded uncertainties.

Conditions: Liquid

Row | Structure (SMILES) | vapor or sublimation pressure (313.15 K) | vapor or sublimation pressure (323.15 K) | vapor or sublimation pressure (333.15 K) | vapor or sublimation pressure (343.15 K) | vapor or sublimation pressure (363.15 K) | vapor or sublimation pressure (353.15 K)
1 | CC(F)F [1,1-difluoroethane] | 909 ± 6 kPa | 1181 ± 7 kPa | 1509 ± 10 kPa | 1898 ± 12 kPa | 2901 ± 18 kPa | 
2 | CCCC [butane] | 377 ± 3 kPa | 495 ± 4 kPa | 638 ± 4 kPa | 810 ± 5 kPa | 1249 ± 8 kPa | 1012 ± 6 kPa
